From US12552793B2, “Purine derivative and medical use thereof” (KANGBAIDA (SICHUAN) BIOTECHNOLOGY CO., LTD., priority 2019, dated 2026)
Where two headings read alike, the source gives them in different places.

Key:
DNA-PK kinase [1] = target: T1, DNA-PK kinase (Homo sapiens (Human), UniProt P78527);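 note: enzyme inhibition of DNA-PK with kinase activity read out by chemiluminescence on a microplate reader after adding a kinase detection reagent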
Method: Inhibition of DNA-PK Kinase
(§1) The inhibitory activity of the compounds against DNA-PK kinase was determined using a DNA-PK kinase assay kit (purchased from Promega, Cat. No. V4107, Batch No. 0000366495). The results were quantified using chemiluminescence, specifically as follows: • i. ADP-fluorescence standard curves at different concentrations were constructed according to the instructions of the kit; • ii. reaction systems (5 L) were prepared in a 384-well white plate; 1 μL of a compound (concentration gradients 1 μM, 200 nM, 40 nM, 8 nM, 1.6 nM, 0.32 nM, 0.064 nM and 0.013 nM were set for each compound), 20 units of DNA-PK kinase, 0.2 μg/μL substrate, 10 μg/μL DNA, 50 μM ATP and 1% DMSO were successively added to each well; • iii. the mixtures were well mixed, centrifuged (1000 rpm, 30 s), and incubated at 37° C. for 60 min; • iv. the reactions were terminated by adding 5 μL of ADP-Glo™ Reagent; the mixtures were well mixed, centrifuged (1000 rpm, 30 s), and incubated at room temperature for 40 min; • v. 10 μL of Kinase Detection Reagent was added; the mixtures were well mixed by shaking, centrifuged (1000 rpm, 30 s), and incubated at room temperature for 30 min; • vi. fluorescence values were measured using a microplate reader (Thermo fisher, Varioskan LUX). IC50 was calculated using GraphPad Prism 8.

DNA-PK kinase [2] = target: T1, DNA-PK kinase; assay: biochemical
Method: Inhibition of DNA-PK Kinase
as §1

Row | SMILES | IC50 (DNA-PK kinase [1]) [nM] | IC50 (DNA-PK kinase [2]) [nM]
1 | Cc1cc(C(N)=O)c(F)cc1Nc1ncc2c(n1)n(C1C3CC4CC1CC(O)(C4)C3)c(=O)n2C (single isomer, unassigned) [2-Fluoro-4-((9-(5-hydroxyadamantan-2-yl)-7-methyl-8-oxo-8,9-dihydro-7H-purin-2-yl)amino)-5-methylbenzamide] | 0.48 | 
2 | Cc1cc2ncccc2cc1Nc1ncc2c(n1)n(C13CC4CC(CC(O)(C4)C1)C3)c(=O)n2C [Compound 2, 9-(3-Hydroxyadamantan-1-yl)-7-methyl-2-((7-methylquinolin-6-yl)amino)-7,9-dihydro-8H-purin-8-one] | 0.01 | 
3 | Cc1cc2ncnn2cc1Nc1ncc2c(n1)n(C13CC4CC(CC(C(=O)OC(C)(C)C)(C4)C1)C3)c(=O)n2C [Compound 3, tert-Butyl-3-(7-methyl-2-[(7-methyl-[1,2,4]triazolo[1,5-a]pyridin-6-yl)amino]-8-oxo-8,9-dihydro-7H-purin-9-yl)adamantane-1-carboxylate] | 14.9 | 
4 | Cc1cc2ncnn2cc1Nc1ncc2c(n1)n(C13CC4CC(CC(C(=O)O)(C4)C1)C3)c(=O)n2C [Compound 4, 3-(7-Methyl-2-((7-methyl-[1,2,4]triazolo[1,5-a]pyridin-6-yl)amino)-8-oxo-7,8-dihydro-9H-purin-9-yl)adamantane-1-carboxylic acid] | 0.45 | 
5 | Cc1cc2ncnn2cc1Nc1ncc2c(n1)n(C13CC4CC(CC(C(N)=O)(C4)C1)C3)c(=O)n2C [Compound 5, 3-(7-Methyl-2-[(7-methyl-[1,2,4]triazolo[1,5-a]pyridin-6-yl)amino]-8-oxo-8,9-dihydro-7H-purin-9-yl)adamantane-1-carboxamide] | 3.87 | 
6 | CCOC(=O)C12CC3CC(C1)CC(n1c(=O)n(C)c4cnc(Nc5cn6ncnc6cc5C)nc41)(C3)C2 [Compound 7, Ethyl-3-(7-methyl-2-[(7-methyl-[1,2,4]triazolo[1,5-a]pyridin-6-yl)amino]-8-oxo-8,9-dihydro-7H-purin-9-yl)adamantane-1-carboxylate] | 0.01 | 
7 | Cc1cc2ncnn2cc1Nc1ncc2c(n1)n(C13CC4CC(CC(CO)(C4)C1)C3)c(=O)n2C [Compound 8, 7-Methyl-2-[(7-methyl-[1,2,4]triazolo[1,5-a]pyridin-6-yl)amino]-9-[3-(hydroxymethyl)adamantan-1-yl]-8,9-dihydro-7H-purin-8-one] | 0.01 | 
8 | Cc1cc2ncnn2cc1Nc1ncc2c(n1)n(C13CC4CC(CC(C(=O)N5CCOCC5)(C4)C1)C3)c(=O)n2C [Compound 9, 7-Methyl-2-[(7-methyl-[1,2,4]triazolo[1,5-a]pyridin-6-yl)amino]-9-[3-(morpholine-4-carbonyl)adamantan-1-yl]-8,9-dihydro-7H-purin-8-one] | 1.1 | 
9 | Cc1cc2ncnn2cc1Nc1ncc2c(n1)n(C13CC4CC(CC(N)(C4)C1)C3)c(=O)n2C [Compound 10, 7-Methyl-2-[(7-methyl-[1,2,4]triazolo[1,5-a]pyridin-6-yl)amino]-9-[3-aminoadamantan-1-yl]-8,9-dihydro-7H-purin-8-one] | 2.26 | 
10 | COC12CC3CC(C1)CC(n1c(=O)n(C)c4cnc(Nc5cn6ncnc6cc5C)nc41)(C3)C2 [Compound 11, 9-(3-Methoxyadamantan-1-yl)-7-methyl-2-((7-methyl-[1,2,4]triazolo[1,5-a]pyridin-6-yl)amino)-7,9-dihydro-8H-purin-8-one] | 0.1 | 
11 | CNC(=O)c1cc(C)c(Nc2ncc3c(n2)n(C24CC5CC(CC(O)(C5)C2)C4)c(=O)n3C)cn1 [Compound 15, 5-((9-(3-Hydroxyadamantan-1-yl)-7-methyl-8-oxo-8,9-dihydro-7H-purin-2-yl)amino)-N,4-dimethylpicolinamide] |  | 1.1
12 | Cc1cc2ncnn2cc1Nc1ncc2c(n1)n(C13CC4CC(C1)C(=O)C(C4)C3)c(=O)n2C [Compound 19, 7-Methyl-2-((7-methyl-[1,2,4]triazolo[1,5-a]pyridin-6-yl)amino)-9-(4-oxoadamantan-1-yl)-7,9-dihydro-8H-purin-8-one] | 0.03 | 
13 | Cc1cc(C(N)=O)c(F)cc1Nc1ncc2c(n1)n(C13CC4CC(CC(O)(C4)C1)C3)c(=O)n2C [Compound 22, 2-Fluoro-4-((9-(3-hydroxyadamantan-1-yl)-7-methyl-8-oxo-8,9-dihydro-7H-purin-2-yl)amino)-5-methylbenzamide] | 0.01 | 
14 | Cc1cc(C(N)=O)c(F)cc1Nc1ncc2c(n1)n(C13CC4CC(C1)C(=O)C(C4)C3)c(=O)n2C [Compound 25, 2-Fluoro-5-methyl-4-((7-methyl-8-oxo-9-(4-oxoadamantan-1-yl)-8,9-dihydro-7H-purin-2-yl)amino)benzamide] | 0.01 | 
15 | Cc1cc2c(cc1Nc1ncc3c(n1)n(C14CC5CC(C1)C(=O)C(C5)C4)c(=O)n3C)CCO2 [Compound 30, 7-Methyl-2-((6-methyl-2,3-dihydrobenzofuran-5-yl)amino)-9-(4-oxoadamantan-1-yl)-7,9-dihydro-8H-purin-8-one] | 0.08 | 
16 | COC1(OC)C2CC3CC1CC(n1c(=O)n(C)c4cnc(Nc5cc6c(cc5C)OCC6)nc41)(C3)C2 [Compound 31, 9-(4,4-Dimethoxyadamantan-1-yl)-7-methyl-2-((6-methyl-2,3-dihydrobenzofuran-5-yl)amino)-7,9-dihydro-8H-purin-8-one] | 0.1 | 
17 | Cc1cc2c(cc1Nc1ncc3c(n1)n(C14CC5CC(CC(O)(C5)C1)C4)c(=O)n3C)CCO2 [Compound 32, 9-(3-Hydroxyadamantan-1-yl)-7-methyl-2-((6-methyl-2,3-dihydrobenzofuran-5-yl)amino)-7,9-dihydro-8H-purin-8-one] | 2.3 | 
18 | Cn1c(=O)n(C23CC4CC(CC(O)(C4)C2)C3)c2nc(Nc3cc4c(cc3Cl)OCC4)ncc21 [Compound 33, 2-((6-Chloro-2,3-dihydrobenzofuran-5-yl)amino)-9-(3-hydroxyadamantan-1-yl)-7-methyl-7,9-dihydro-8H-purin-8-one] | 6.4 | 
19 | Cc1cc(C(N)=O)c(F)cc1Nc1ncc2c(n1)n(C13CC4CC(CC(C#N)(C4)C1)C3)c(=O)n2C [Compound 34, 4-((9-(3-Cyanoadamantan-1-yl)-7-methyl-8-oxo-8,9-dihydro-7H-purin-2-yl)amino)-2-fluoro-5-methylbenzamide] | 7.5 | 
20 | Cc1cc2ncnn2cc1Nc1ncc2[nH]c(=O)n(C34CC5CC(CC(O)(C5)C3)C4)c2n1 [Compound 36, 9-(3-Hydroxyadamantan-1-yl)-2-((7-methyl-[1,2,4]triazolo[1,5-a]pyridin-6-yl)amino)-7,9-dihydro-8H-purin-8-one] | 0.32 | 

The next lines start with the values.

Row | IC50 (DNA-PK kinase [1]) [nM] | IC50 (DNA-PK kinase [2]) [nM] | SMILES
21 | 0.68 |  | Cc1cc(C#N)ccc1Nc1ncc2c(n1)n(C1C3CC4CC1CC(O)(C4)C3)c(=O)n2C (single isomer, unassigned) [Compound 13-1, 4-((9-(5-Hydroxyadamantan-2-yl)-7-methyl-8-oxo-8,9-dihydro-7H-purin-2-yl)amino)-3-methylbenzonitrile]
22 | 51.9 |  | Cc1cc(C#N)ccc1Nc1ncc2c(n1)n(C1C3CC4CC1CC(O)(C4)C3)c(=O)n2C (single isomer, unassigned) [Compound 13-2, 4-((9-(5-Hydroxyadamantan-2-yl)-7-methyl-8-oxo-8,9-dihydro-7H-purin-2-yl)amino)-3-methylbenzonitrile]
23 | 0.01 |  | Cc1cc2ncnn2cc1Nc1ncc2c(n1)n(C13CC4CC(C1)C(C#N)C(C4)C3)c(=O)n2C (single isomer, unassigned) [Compound 21-1, 5-(7-Methyl-2-((7-methyl-[1,2,4]triazolo[1,5-a]pyridin-6-yl)amino)-8-oxo-7,8-dihydro-9H-purin-9-yl)adamantane-2-carbonitrile]
24 | 0.1 |  | Cc1cc2ncnn2cc1Nc1ncc2c(n1)n(C13CC4CC(C1)C(C#N)C(C4)C3)c(=O)n2C (single isomer, unassigned) [Compound 21-2, 5-(7-Methyl-2-((7-methyl-[1,2,4]triazolo[1,5-a]pyridin-6-yl)amino)-8-oxo-7,8-dihydro-9H-purin-9-yl)adamantane-2-carbonitrile]
25 | 0.66 |  | Cc1cc(C(N)=O)c(F)cc1Nc1ncc2c(n1)n(C13CC4CC(C1)C(C#N)C(C4)C3)c(=O)n2C (single isomer, unassigned) [Compound 24-1, 4-((9-(4-Cyanoadamantan-1-yl)-7-methyl-8-oxo-8,9-dihydro-7H-purin-2-yl)amino)-2-fluoro-5-methylbenzamide]
26 | 8.39 |  | Cc1cc(C(N)=O)c(F)cc1Nc1ncc2c(n1)n(C13CC4CC(C1)C(C#N)C(C4)C3)c(=O)n2C (single isomer, unassigned) [Compound 24-2, 4-((9-(4-Cyanoadamantan-1-yl)-7-methyl-8-oxo-8,9-dihydro-7H-purin-2-yl)amino)-2-fluoro-5-methylbenzamide]
27 | 10.5 |  | Cc1cc(C(N)=O)c(F)cc1Nc1ncc2c(n1)n(C1C3CC4CC1CC(O)(C4)C3)c(=O)n2C (single isomer, unassigned) [Compound 27-1, 2-Fluoro-4-((9-(5-hydroxyadamantan-2-yl)-7-methyl-8-oxo-8,9-dihydro-7H-purin-2-yl)amino)-5-methylbenzamide]
28 | 0.75 |  | Cc1cc2ncnn2cc1Nc1ncc2c(n1)n(C1C3CC4CC1CC(C#N)(C4)C3)c(=O)n2C (single isomer, unassigned) [Compound 28-1, 4-(7-Methyl-2-((7-methyl-[1,2,4]triazolo[1,5-a]pyridin-6-yl)amino)-8-oxo-7,8-dihydro-9H-purin-9-yl)adamantane-1-carbonitrile]
29 | 0.1 |  | Cc1cc2ncnn2cc1Nc1ncc2c(n1)n(C1C3CC4CC1CC(C#N)(C4)C3)c(=O)n2C (single isomer, unassigned) [Compound 28-2, 4-(7-Methyl-2-((7-methyl-[1,2,4]triazolo[1,5-a]pyridin-6-yl)amino)-8-oxo-7,8-dihydro-9H-purin-9-yl)adamantane-1-carbonitrile]
30 |  | 0.13 | Cc1cc2ncnn2cc1Nc1ncc2c(n1)n(C13CC4CC(C1)C(O)C(C4)C3)c(=O)n2C (stereo not drawn) [Compound 18-2, 9-(4-Hydroxyadamantan-1-yl)-7-methyl-2-((7-methyl-[1,2,4]triazolo[1,5-a]pyridin-6-yl)amino)-7,9-dihydro-8H-purin-8-one]
